From paper PMC8955712, “Rapid Mining of Novel α-Glucosidase and Lipase Inhibitors from Streptomyces sp. HO1518 Using UPLC-QTOF-MS/MS” (Marine Drugs, 2022)
Like-named read-outs stand apart in the source and are kept apart here.

What was measured:
Format in all cases: biochemical
sucrase = test: Sucrase inhibition assay; settings: mean ± SD; acarbose positive control; read-out: IC50 Values Against Sucrase
From the text: (§1) The HPLC-grade methanol and acetonitrile were purchased from CINC High Purity Solvents (Shanghai) Co., Ltd. (Shanghai, China). The other solvents were of analytical grade (Sinopharm Chemical Reagent Co., Ltd., Beijing, China). Porcine pancreatic α-amylase (PPA) and PL were purchased from Sigma Aldrich Co. (St Louis, MO, USA). Sucrase and acarbose were obtained from Shanghai yuanye Bio-Technology Co., Ltd. (Shanghai, China). Orlistat was bought from Shanghai xushuo Bio-Technology Co., Ltd. (Shanghai, China). Standards 1–9 were previously isolated from Streptomyces sp. HO1518 by our group.
The sucrase inhibition assay of compounds 9–20 was evaluated according to the previously reported method.

pancreatic lipase (PL) = target: T1, pancreatic lipase (PL) (Sus scrofa, UniProt P00591); test: PL (lipase) inhibition assay; settings: read-out: IC50 Values Against PL
T1 construct: purchased Sigma Aldrich Co. (St Louis, MO, USA)
T1 sequence (P00591 1-450): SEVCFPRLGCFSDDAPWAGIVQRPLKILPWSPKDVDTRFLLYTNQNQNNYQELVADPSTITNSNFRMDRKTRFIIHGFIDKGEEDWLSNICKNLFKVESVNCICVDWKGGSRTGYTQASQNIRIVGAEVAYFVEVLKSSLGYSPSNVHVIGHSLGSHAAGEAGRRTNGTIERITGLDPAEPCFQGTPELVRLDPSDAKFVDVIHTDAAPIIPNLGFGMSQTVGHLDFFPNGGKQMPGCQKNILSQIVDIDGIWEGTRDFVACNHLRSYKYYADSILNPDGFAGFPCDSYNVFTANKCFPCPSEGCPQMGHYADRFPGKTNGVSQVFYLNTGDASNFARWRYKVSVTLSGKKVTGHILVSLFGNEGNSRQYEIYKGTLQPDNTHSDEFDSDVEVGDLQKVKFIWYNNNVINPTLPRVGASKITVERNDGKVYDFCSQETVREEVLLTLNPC
From the text: as §1, with “Sucrase and acarbose were obtained from Shanghai yuanye Bio-Technology Co., Ltd. (Shanghai, China). Orlistat was bought from Shanghai xushuo Bio-Technology Co., Ltd. (Shanghai, China).” left out

[1] = target: T2, Porcine pancreatic α-amylase (PPA) (Sus scrofa, UniProt P00690); test: PPA inhibition assay; settings: for IC50: read-out: IC50 Values Against PPA
T2 construct: purchased Sigma Aldrich Co. (St Louis, MO, USA)
T2 sequence (P00690 16-511): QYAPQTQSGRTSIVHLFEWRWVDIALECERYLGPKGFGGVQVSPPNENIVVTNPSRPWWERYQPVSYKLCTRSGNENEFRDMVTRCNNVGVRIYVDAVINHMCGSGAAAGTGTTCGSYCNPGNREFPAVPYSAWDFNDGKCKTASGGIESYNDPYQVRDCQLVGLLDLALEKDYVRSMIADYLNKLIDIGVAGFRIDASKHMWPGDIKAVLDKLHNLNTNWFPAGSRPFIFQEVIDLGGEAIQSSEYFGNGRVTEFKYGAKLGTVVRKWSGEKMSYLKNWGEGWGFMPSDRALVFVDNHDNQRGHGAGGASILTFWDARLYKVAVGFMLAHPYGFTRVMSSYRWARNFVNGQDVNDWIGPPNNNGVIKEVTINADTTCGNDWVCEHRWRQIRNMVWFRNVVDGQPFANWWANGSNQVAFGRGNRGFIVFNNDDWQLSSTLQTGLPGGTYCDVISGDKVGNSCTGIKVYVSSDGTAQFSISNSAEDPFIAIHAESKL
From the text: as §1, with “Sucrase and acarbose were obtained from Shanghai yuanye Bio-Technology Co., Ltd. (Shanghai, China). Orlistat was bought from Shanghai xushuo Bio-Technology Co., Ltd. (Shanghai, China).” left out

[2] = mean ± SD, acarbose positive control
[3] = mean ± SD, orlistat positive control

Row | Structure (SMILES) | IC50 (sucrase) [µM] | IC50 (pancreatic lipase (PL)) [µM] | fold more effective than acarbose (α-amylase inhibition) ([1]; ratio of PPA IC50 values, acarbose vs compound) [fold] | IC50 [1] [µM] | IC50 [1, 2] [µM] | IC50 (pancreatic lipase (PL); [3]) [µM]
1 | CC1OC(OC2C(CO)OC(OC3C(CO)=CC(NC4C(C)OC(OC5C(CO)OC(OC6C(CO)OC(OC7C(CO)OC(OC8C(CO)OC(O)C(O)C8O)C(O)C7O)C(O)C6O)C(O)C5O)C(O)C4O)C(O)C3O)C(O)C2O)C(O)C(O)C1NC1C=C(CO)C(O)C(O)C1O (stereo not drawn) [Compound 9, acarviostatin II03] | 17.2 ± 0.76 | 7.64 ± 0.13 | 282 | 0.03 ± 0.001 | – | –
2 | CCCC(=O)OC[C@H]1O[C@H](O[C@H]2[C@H](O)[C@@H](O)[C@@H](O[C@H]3[C@H](O)[C@@H](O)[C@@H](O[C@H]4[C@H](O)[C@@H](O)C(O)O[C@@H]4CO)O[C@@H]3CO)O[C@@H]2CO)[C@H](O)[C@@H](O)[C@@H]1O[C@H]1O[C@H](C)[C@@H](N[C@H]2C=C(CO)[C@@H](O[C@H]3O[C@H](CO)[C@@H](O[C@H]4O[C@H](C)[C@@H](N[C@H]5C=C(CO)[C@@H](O)[C@H](O)[C@H]5O)[C@H](O)[C@H]4O)[C@H](O)[C@H]3O)[C@H](O)[C@H]2O)[C@H](O)[C@H]1O (stereo partly drawn) [Compound 15, D6-O-Butyryl-acarviostatin II03] | 10.7 ± 2.6 | – | – | – | 0.059 ± 0.007 | 4.46 ± 0.14
3 | CCC(=O)OC[C@H]1O[C@H](O[C@H]2[C@H](O)[C@@H](O)[C@@H](O[C@H]3[C@H](O)[C@@H](O)[C@@H](O[C@H]4[C@H](O)[C@@H](O)C(O)O[C@@H]4CO)O[C@@H]3CO)O[C@@H]2CO)[C@H](O)[C@@H](O)[C@@H]1O[C@H]1O[C@H](C)[C@@H](N[C@H]2C=C(CO)[C@@H](O[C@H]3O[C@H](CO)[C@@H](O[C@H]4O[C@H](C)[C@@H](N[C@H]5C=C(CO)[C@@H](O)[C@H](O)[C@H]5O)[C@H](O)[C@H]4O)[C@H](O)[C@H]3O)[C@H](O)[C@H]2O)[C@H](O)[C@H]1O (stereo partly drawn) [Compound 14, D6-O-Propionyl-acarviostatin II03] | 2.56 ± 0.12 | – | – | – | 0.035 ± 0.001 | 4.21 ± 0.03
4 | CC(C)CC(=O)OC[C@H]1O[C@H](O[C@H]2[C@H](O)[C@@H](O)[C@@H](O[C@H]3[C@H](O)[C@@H](O)[C@@H](O[C@H]4[C@H](O)[C@@H](O)C(O)O[C@@H]4CO)O[C@@H]3CO)O[C@@H]2CO)[C@H](O)[C@@H](O)[C@@H]1O[C@H]1O[C@H](C)[C@@H](N[C@H]2C=C(CO)[C@@H](O[C@H]3O[C@H](CO)[C@@H](O[C@H]4O[C@H](C)[C@@H](N[C@H]5C=C(CO)[C@@H](O)[C@H](O)[C@H]5O)[C@H](O)[C@H]4O)[C@H](O)[C@H]3O)[C@H](O)[C@H]2O)[C@H](O)[C@H]1O (stereo partly drawn) [Compound 20, isoVa-Aca II03] | 9.93 ± 0.5 | – | – | – | 0.08 ± 0.003 | 1.43 ± 0.08
5 | CC(C)CC(=O)OC[C@H]1O[C@H](O[C@H]2[C@H](O)[C@@H](O)[C@@H](O[C@H]3[C@H](O)[C@@H](O)C(O)O[C@@H]3CO)O[C@@H]2CO)[C@H](O)[C@@H](O)[C@@H]1O[C@H]1O[C@H](C)[C@@H](N[C@H]2C=C(CO)[C@@H](O[C@H]3O[C@H](CO)[C@@H](O[C@H]4O[C@H](C)[C@@H](N[C@H]5C=C(CO)[C@@H](O)[C@H](O)[C@H]5O)[C@H](O)[C@H]4O)[C@H](O)[C@H]3O)[C@H](O)[C@H]2O)[C@H](O)[C@H]1O (stereo partly drawn) [Compound 13, D6-O-Isovaleryl-acarviostatin II02] | 7.06 ± 0.09 | 1.56 ± 0.04 | – | 0.092 ± 0.001 | – | –
6 | CCC(C)C(=O)OC[C@H]1O[C@H](O[C@H]2[C@H](O)[C@@H](O)[C@@H](O[C@H]3[C@H](O)[C@@H](O)[C@@H](O[C@H]4[C@H](O)[C@@H](O)C(O)O[C@@H]4CO)O[C@@H]3CO)O[C@@H]2CO)[C@H](O)[C@@H](O)[C@@H]1O[C@H]1O[C@H](C)[C@@H](N[C@H]2C=C(CO)[C@@H](O[C@H]3O[C@H](CO)[C@@H](O[C@H]4O[C@H](C)[C@@H](N[C@H]5C=C(CO)[C@@H](O)[C@H](O)[C@H]5O)[C@H](O)[C@H]4O)[C@H](O)[C@H]3O)[C@H](O)[C@H]2O)[C@H](O)[C@H]1O (stereo partly drawn) [Compound 16, D6-O-2-Methyl-butyryl-acarviostatin II03] | 7.28 ± 0.1 | – | – | – | 0.052 ± 0.003 | 1.34 ± 0.03
7 | CC(O)CC(=O)OC[C@H]1O[C@H](O[C@H]2[C@H](O)[C@@H](O)[C@@H](O[C@H]3[C@H](O)[C@@H](O)[C@@H](O[C@H]4[C@H](O)[C@@H](O)C(O)O[C@@H]4CO)O[C@@H]3CO)O[C@@H]2CO)[C@H](O)[C@@H](O)[C@@H]1O[C@H]1O[C@H](C)[C@@H](N[C@H]2C=C(CO)[C@@H](O[C@H]3O[C@H](CO)[C@@H](O[C@H]4O[C@H](C)[C@@H](N[C@H]5C=C(CO)[C@@H](O)[C@H](O)[C@H]5O)[C@H](O)[C@H]4O)[C@H](O)[C@H]3O)[C@H](O)[C@H]2O)[C@H](O)[C@H]1O (stereo partly drawn) [Compound 19, Hbu-Aca II03] | 9.67 ± 0.1 | – | – | – | 0.061 ± 0.005 | 1 ± 0.12

Further lines, results first:

Row | IC50 (sucrase) [µM] | IC50 (pancreatic lipase (PL)) [µM] | fold more effective than acarbose (α-amylase inhibition) ([1]; ratio of PPA IC50 values, acarbose vs compound) [fold] | IC50 [1] [µM] | IC50 [1, 2] [µM] | IC50 (pancreatic lipase (PL); [3]) [µM] | Structure (SMILES)
8 | 2.34 ± 0.23 | 191 ± 15.2 | – | – | – | – | C[C@H]1O[C@H](O[C@H]2[C@H](O)[C@@H](O)[C@@H](O[C@H]3[C@H](O)[C@@H](O)C(O)O[C@@H]3CO)O[C@@H]2CO)[C@H](O)[C@@H](O)[C@@H]1N[C@H]1C=C(CO)[C@@H](O)[C@H](O)[C@H]1O (stereo partly drawn) [acarbose, reference compound]
9 | 6.79 ± 0.06 | 5.48 ± 0.18 | – | 0.085 ± 0.006 | – | – | CC(C)C(=O)OC[C@H]1O[C@H](O[C@H]2[C@H](O)[C@@H](O)[C@@H](O[C@H]3[C@H](O)[C@@H](O)C(O)O[C@@H]3CO)O[C@@H]2CO)[C@H](O)[C@@H](O)[C@@H]1O[C@H]1O[C@H](C)[C@@H](N[C@H]2C=C(CO)[C@@H](O[C@H]3O[C@H](CO)[C@@H](O[C@H]4O[C@H](C)[C@@H](N[C@H]5C=C(CO)[C@@H](O)[C@H](O)[C@H]5O)[C@H](O)[C@H]4O)[C@H](O)[C@H]3O)[C@H](O)[C@H]2O)[C@H](O)[C@H]1O (stereo partly drawn) [Compound 12, D6-O-Isobutyryl-acarviostatin II02]
10 | 3.8 ± 0.78 | 11.7 ± 2.52 | – | 0.402 ± 0.008 | – | – | CCCC(=O)OC[C@H]1O[C@H](O[C@H]2[C@H](O)[C@@H](O)[C@@H](O[C@H]3[C@H](O)[C@@H](O)[C@@H](O[C@H]4[C@H](O)[C@@H](O)C(O)O[C@@H]4CO)O[C@@H]3CO)O[C@@H]2CO)[C@H](O)[C@@H](O)[C@@H]1O[C@H]1O[C@H](C)[C@@H](N[C@H]2C=C(CO)[C@@H](O)[C@H](O)[C@H]2O)[C@H](O)[C@H]1O (stereo partly drawn) [Compound 18, Bu-Aca I03]
11 | 4.34 ± 0.24 | 7.22 ± 0.1 | – | 0.079 ± 0.001 | – | – | CCC(=O)OC[C@H]1O[C@H](O[C@H]2[C@H](O)[C@@H](O)[C@@H](O[C@H]3[C@H](O)[C@@H](O)C(O)O[C@@H]3CO)O[C@@H]2CO)[C@H](O)[C@@H](O)[C@@H]1O[C@H]1O[C@H](C)[C@@H](N[C@H]2C=C(CO)[C@@H](O[C@H]3O[C@H](CO)[C@@H](O[C@H]4O[C@H](C)[C@@H](N[C@H]5C=C(CO)[C@@H](O)[C@H](O)[C@H]5O)[C@H](O)[C@H]4O)[C@H](O)[C@H]3O)[C@H](O)[C@H]2O)[C@H](O)[C@H]1O (stereo partly drawn) [Compound 11, D6-O-Propionyl-acarviostatin II02]
12 | 11.1 ± 0.24 | 31.6 ± 4.13 | – | 0.296 ± 0.007 | – | – | C[C@H]1O[C@H](O[C@H]2[C@H](O)[C@@H](O)[C@@H](O[C@H]3[C@H](O)[C@@H](O)[C@@H](O[C@H]4[C@H](O)[C@@H](O)[C@@H](O[C@H]5[C@H](O)[C@@H](O)C(O)O[C@@H]5CO)O[C@@H]4CO)O[C@@H]3CO)O[C@@H]2CO)[C@H](O)[C@@H](O)[C@@H]1N[C@H]1C=C(CO)[C@@H](O)[C@H](O)[C@H]1O (stereo partly drawn) [Compound 17, acarviostatin I03]
13 | 13.1 ± 0.55 | 12.7 ± 0.76 | – | 0.084 ± 0.001 | – | – | C[C@H]1O[C@H](O[C@H]2[C@H](O)[C@@H](O)[C@@H](O[C@H]3[C@H](O)[C@@H](O)[C@@H](O[C@H]4[C@H](O)[C@@H](O)C(O)O[C@@H]4CO)O[C@@H]3CO)O[C@@H]2CO)[C@H](O)[C@@H](O)[C@@H]1N[C@H]1C=C(CO)[C@@H](O[C@H]2O[C@H](CO)[C@@H](O[C@H]3O[C@H](C)[C@@H](N[C@H]4C=C(CO)[C@@H](O)[C@H](O)[C@H]4O)[C@H](O)[C@H]3O)[C@H](O)[C@H]2O)[C@H](O)[C@H]1O (stereo partly drawn) [Compound 10, Acarviostatin II02]
